Test results as given in article PMC8012331, “Drug-induced hepatic steatosis in absence of severe mitochondrial dysfunction in HepaRG cells: proof of multiple mechanism-based toxicity” (Cell Biology and Toxicology, 2020).

Columns and labels:
[1] = test system: primary human hepatocytes (PHH); experiment: Neutral lipids with Nile red in primary human hepatocytes; format: cell-based; settings: 4 days
Experimental: Primary human hepatocytes (PHH) were purchased from Biopredic International (Saint-Grégoire, France). Cells were seeded by the supplier in coated 96-well plates at a density of 5 × 10^4 cells/well. Upon receipt, culture medium was removed and replaced by William’s E medium supplemented as previously described for HepaRG cell differentiation, except for DMSO set at 1%. After 2–3 days, cells were treated as for HepaRG cells. For HepaRG cells and PHH, cells were always maintained in incubators at 37 °C with 5% CO2 and saturating humidity.
Cells were then incubated with PBS containing 0.1 μg/mL Nile red for 30 min and washed once. […] For each well, four pictures were taken at a magnification of × 20 and analyzed with Columbus software (PerkinElmer) for quantification. These pictures were always taken in four different areas around the center of each well, and these areas were the same from one well to another, as programmed by the Columbus software. This software was also designed to count only living cells after exclusion of dying cells harboring nuclei with abnormal shape or altered Hoechst intensity. […] Neutral lipids were then normalized per number of nuclei and expressed relative to control cells. Examples of images used for neutral lipid quantification are shown in Supplementary Fig. 2.

[2] = test system: apoB secretion; experiment: apoB level in culture medium (ELISA), HepaRG cells; format: cell-based, human; settings: 4 days, culture medium, vs control
[3] = test system: permeabilized HepaRG cells; experiment: Oxygen consumption in permeabilized HepaRG cells (Seahorse); format: cell-based, human; settings: for EC20 values for inhibition of O2 consumption, Glutamate + malate / EC20 values for inhibition of O2 consumption, Octanoyl-L-carnitine / EC20 values for inhibition of O2 consumption, Palmitoyl-CoA + L-carnitine / EC20 values for inhibition of O2 consumption, Palmitoyl-L-carnitine: state 3, mean ± SD, 2-3 runs
Experimental: Cryopreserved differentiated HepaRG cells (HPR116, Biopredic International) were thawed and seeded at 36,000 cells/well in Seahorse XFe96 cell culture microplate (Agilent) in HepaRG® Thawing/Plating/General Purpose Medium Supplement with antibiotics (Biopredic International) combined with 100 mL of William’s Medium E (Sigma) and incubated at 37 °C with 5% CO2. The day after, medium was replaced by HepaRG Maintenance/Metabolism Medium Supplement with antibiotics (Biopredic International) combined with 100 mL of William’s Medium E. […] Two technical replicates were carried out per condition in two to three independent experimental runs.

[4] = test system: ATP citrate lyase (ACLY); experiment: RT-qPCR ACLY mRNA in HepaRG cells; format: cell-based, human; settings: 4 days, vs control
Experimental: (§1) Total RNA was extracted with the Nucleospin RNA isolation system purchased from Macherey-Nagel (Düren, Germany), which included a DNase treatment step. Quantification of isolated RNAs was assessed using a Nanodrop 1000 (Thermo Fisher Scientific, Waltham, MA). RNAs were reverse-transcribed into cDNAs using the High-Capacity cDNA Reverse Transcription Kit purchased from Applied Biosystems (Woolston, UK). Gene expression was assessed by real-time quantitative PCR analysis (RT-qPCR) using SYBR Green PCR Master Mix (Applied Biosystems) and a 384-well QuantStudio™ 7 Flex Real-Time PCR System (Thermo Fisher Scientific). Sequences of the primers used to measure gene expression are presented in Supplementary Table 3. Expression of GAPDH was chosen as reference and the 2^−ΔΔCt calculation method was used to express the relative expression of each selected gene.

[5] = test system: acetyl-CoA carboxylase alpha (ACACA); experiment: RT-qPCR ACACA mRNA in HepaRG cells; format: cell-based, human; settings: 4 days, vs control
Experimental: as §1

[6] = test system: fatty acid synthase (FASN); experiment: RT-qPCR FASN mRNA in HepaRG cells; format: cell-based, human; settings: 4 days, vs control
Experimental: as §1

[7] = test system: stearoyl-CoA desaturase 1 (hSCD1); experiment: RT-qPCR hSCD1 mRNA in HepaRG cells; format: cell-based, human; settings: 4 days, vs control
Experimental: as §1

[8] = test system: ERN1 (IRE1α); experiment: RT-qPCR ERN1 mRNA in HepaRG cells; format: cell-based, human; settings: 4 days, vs control
In short: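 DNase-treated total RNA from HepaRG cells reverse-transcribed and quantified by SYBR Green RT-qPCR. Expression normalised to GAPDH and given as relative values by the 2^−ΔΔCt method.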

[9] = test system: isolated mouse liver mitochondria; experiment: Oxygen consumption of isolated mouse liver mitochondria; format: biochemical; settings: state 3
Experimental: For all aforementioned substrates, measurements were performed in parallel without or with 2 μM rotenone in order to calculate (EC20), as previously mentioned. Oxygen consumption was measured in real-time for 60 min at 37 °C in 96-well plates using a spectrofluorometer (Tecan Infinite® 200; λExcitation 380 nm; λEmission 650 nm). The slope of fluorescence increase, corresponding to the rate of oxygen consumption, was used for calculations. EC20 was thus assessed as previously described by compiling the percentage of inhibition obtained from 4 to 12 experiments.

[10] = test system: HepaRG cells; experiment: Cellular ATP level (CellTiter-Glo) in HepaRG cells; format: cell-based, human; settings: 4 days, vs controls
Experimental: Cellular ATP level was measured using the CellTiter-Glo® Luminescent Cell Viability assay purchased from Promega (Charbonnières, France), according to the manufacturer’s instructions. Briefly, control and treated HepaRG cells were first washed with warm PBS and kept for 30 min at room temperature in phenol red-free William’s E medium. Cells were next incubated with the CellTiter-Glo® reagent for 10 min at room temperature. Cells were then transferred in opaque-walled multiwell plates and the luminescent signal was quantified using a POLARstar Omega microplate reader (BMG Labtech, Ortenberg, Germany). Results were expressed in comparison to control cells.

## COc1ccc2c(c1)c(CC(=O)O)c(C)n2C(=O)c1ccc(Cl)cc1 [INDO, indomethacin]
[1]
  Steatosis in PHH batches (six batches tested): steatotic in two PHH batches
[2]
  Effect on apoB secretion: reduced the secretion
[3]
  EC20 values for inhibition of O2 consumption, Glutamate + malate: 119 ± 20 µM
  EC20 values for inhibition of O2 consumption, Octanoyl-L-carnitine: 150 ± 11 µM
  EC20 values for inhibition of O2 consumption, Palmitoyl-CoA + L-carnitine: 79 ± 8 µM
  EC20 values for inhibition of O2 consumption, Palmitoyl-L-carnitine: 163 ± 26 µM
[4]
  ACLY mRNA level: augmented mRNA abundance
[5]
  ACACA mRNA level: augmented mRNA abundance
[6]
  FASN mRNA level: augmented mRNA abundance
[7]
  hSCD1 mRNA level: also increased hSCD1 mRNA level
[8]
  ERN1 (IRE1α) mRNA level: enhanced IRE1α mRNA level

## CO[C@H]1/C=C/O[C@@]2(C)Oc3c(C)c(O)c4c(O)c(c(/C=N/N5CCN(C)CC5)c(O)c4c3C2=O)NC(=O)/C(C)=C\C=C\[C@H](C)[C@H](O)[C@@H](C)[C@@H](O)[C@@H](C)[C@H](OC(C)=O)[C@@H]1C [RIF, rifampicin]
[1]
  Steatosis in PHH batches (six batches tested): induced steatosis in only one PHH batch
[2]
  Effect on apoB secretion: reduced the secretion
[3]; all four substrates
  EC20 for inhibition of O2 consumption, all substrates: above 200 μM
[3]
  EC20 values for inhibition of O2 consumption, Glutamate + malate: > 200 µM
  EC20 values for inhibition of O2 consumption, Octanoyl-L-carnitine: > 200 µM
  EC20 values for inhibition of O2 consumption, Palmitoyl-CoA + L-carnitine: > 200 µM
  EC20 values for inhibition of O2 consumption, Palmitoyl-L-carnitine: > 200 µM
[9]
  EC20 for inhibition of O2 consumption, glutamate/malate: 34 ± 12 µM
  EC20 for inhibition of O2 consumption, octanoyl-L-carnitine: 17 ± 2 µM
  EC20 for inhibition of O2 consumption, palmitoyl-L-carnitine: 16 ± 3 µM
  EC20 for inhibition of O2 consumption, palmitoyl-coenzyme A + L-carnitine: 20 ± 4 µM
[10]
  Loss of cellular ATP relative to the maximum concentration selected for the study: 300 µM (loss of cellular ATP above 30% of the controls for higher concentrations, as shown in Supp. fig 1)
[8]
  ERN1 (IRE1α) mRNA level: enhanced IRE1α mRNA level
